The text below walks through data of the supplement of paper PMC10307832.

What all share (assay): relative viability (nuclei count vs DMSO), 5 days (fraction); higher = more cells survive
Compound in experiment [1]: CN(c1ncccc1CNc1nc(Nc2ccc3c(c2)CC(=O)N3)ncc1C(F)(F)F)S(C)(=O)=O + CC1(C)CCC(c2ccc(Cl)cc2)=C(CN2CCN(c3ccc(C(=O)NS(=O)(=O)c4ccc(N[C@H](CCN5CCOCC5)CSc5ccccc5)c(S(=O)(=O)C(F)(F)F)c4)cc3)CC2)C1 [Navitoclax] (partner 0.5 µM)
An outline of the steps: (§1)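 A single step with final 0.05% Triton X-100, 1% formaldehyde and 1 ug/ml Hoechst fixed the cells and stained nuclei 5 days after treatment. Lung cancer cell lines in 1536-well plates had been treated by pin tool the day after seeding with one drug alone or a fixed anchor-drug dose plus five library-drug doses (not always all listed) in √10 steps, and nuclei were counted on 4× images. Relative viability is the ratio of nuclei in treated wells to nuclei in vehicle wells, taken as the median of duplicate plates.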

Compound in experiment [2]: CN(c1ncccc1CNc1nc(Nc2ccc3c(c2)CC(=O)N3)ncc1C(F)(F)F)S(C)(=O)=O + C[C@@H](Oc1cc(-c2cnn(C3CCNCC3)c2)cnc1N)c1c(Cl)ccc(F)c1Cl [Crizotinib] (partner 1 µM)
An outline of the steps:
as §1

Compound in experiment [3]: CN(c1ncccc1CNc1nc(Nc2ccc3c(c2)CC(=O)N3)ncc1C(F)(F)F)S(C)(=O)=O + Cc1nc(Nc2ncc(C(=O)Nc3c(C)cccc3Cl)s2)cc(N2CCN(CCO)CC2)n1 [Dasatinib] (partner 0.075 µM)
An outline of the steps: as §1

Compound in experiment [4]: CN(c1ncccc1CNc1nc(Nc2ccc3c(c2)CC(=O)N3)ncc1C(F)(F)F)S(C)(=O)=O + O=C(CCCCCCC(=O)Nc1ccccc1)NO [Vorinostat] (partner 1 µM)
The essentials: as §1

Turning to HCC-15, the relative viability in experiment [1] (first compound 0.01 µM) was determined as 0.716; in experiment [1] (first compound 0.03162 µM) it was 0.745; in experiment [1] (first compound 0.1 µM), 0.639; in experiment [1] (first compound 0.3162 µM), 0.579; in experiment [1] (first compound 1 µM) it was 0.507; in experiment [2] (first compound 0.01 µM), 0.821. Further, the relative viability in experiment [2] (first compound 0.03162 µM) amounted to 0.746; in experiment [2] (first compound 0.1 µM), 0.739; in experiment [2] (first compound 0.3162 µM) it was 0.707; in experiment [2] (first compound 1 µM), 0.6; in experiment [3] (first compound 0.01 µM), 0.541; in experiment [3] (first compound 0.03162 µM), 0.602. In addition, the relative viability came to 0.497 in experiment [3] (first compound 0.1 µM); 0.428 in experiment [3] (first compound 0.3162 µM); 0.408 in experiment [3] (first compound 1 µM); 0.79 in experiment [4] (first compound 0.01 µM); 0.796 in experiment [4] (first compound 0.03162 µM); 0.741 in experiment [4] (first compound 0.1 µM). Moreover, the figures for the relative viability in experiment [4] (first compound 0.3162 µM) and in experiment [4] (first compound 1 µM) were 0.77 and 0.675, respectively.
Turning to NCI-H647, the relative viability was determined as 1.16 in experiment [1] (first compound 0.01 µM); 1.21 in experiment [1] (first compound 0.03162 µM); 1.16 in experiment [1] (first compound 0.1 µM); 1.04 in experiment [1] (first compound 0.3162 µM); 1.07 in experiment [1] (first compound 1 µM); 1.01 in experiment [2] (first compound 0.01 µM). In addition, the relative viability in experiment [2] (first compound 0.03162 µM) worked out at 1.43; in experiment [2] (first compound 0.1 µM), 1.05; in experiment [2] (first compound 0.3162 µM), 1; in experiment [2] (first compound 1 µM), 1.06; in experiment [3] (first compound 0.01 µM), 0.146; in experiment [3] (first compound 0.03162 µM) it was 0.193. In addition, the relative viability in experiment [3] (first compound 0.1 µM) came to 0.127; in experiment [3] (first compound 0.3162 µM), 0.151; in experiment [3] (first compound 1 µM), 0.125; in experiment [4] (first compound 0.01 µM), 0.473; in experiment [4] (first compound 0.03162 µM) it was 0.742; in experiment [4] (first compound 0.1 µM), 0.476. Besides, the relative viability was 0.577 in experiment [4] (first compound 0.3162 µM) and 0.631 in experiment [4] (first compound 1 µM).
As to SW 1573, the relative viability in experiment [1] (first compound 0.01 µM) is 1.22; in experiment [1] (first compound 0.03162 µM), 0.973; in experiment [1] (first compound 0.1 µM), 0.988; in experiment [1] (first compound 0.3162 µM), 0.896; in experiment [1] (first compound 1 µM) it was 1.07; in experiment [2] (first compound 0.01 µM), 0.874. For the same cell line, the relative viability in experiment [2] (first compound 0.03162 µM) is 0.732; in experiment [2] (first compound 0.1 µM) it was 0.777; in experiment [2] (first compound 0.3162 µM), 0.843; in experiment [2] (first compound 1 µM), 0.78; in experiment [3] (first compound 0.01 µM), 0.428; in experiment [3] (first compound 0.03162 µM), 0.453. Further, the relative viability in experiment [3] (first compound 0.1 µM) is 0.406; in experiment [3] (first compound 0.3162 µM), 0.383; in experiment [3] (first compound 1 µM) it was 0.273; in experiment [4] (first compound 0.01 µM), 0.832; in experiment [4] (first compound 0.03162 µM), 1.11; in experiment [4] (first compound 0.1 µM) it was 0.696. Also, the relative viability was 0.992 in experiment [4] (first compound 0.3162 µM) and 0.588 in experiment [4] (first compound 1 µM).
Take NCI-H1651: the relative viability in experiment [1] (first compound 0.01 µM) is 1.07; in experiment [1] (first compound 0.03162 µM), 1; in experiment [1] (first compound 0.1 µM), 1.21; in experiment [1] (first compound 0.3162 µM) it was 0.867; in experiment [1] (first compound 1 µM), 0.976; in experiment [2] (first compound 0.01 µM) it was 0.858. Besides, the relative viability in experiment [2] (first compound 0.03162 µM) stood at 0.85; in experiment [2] (first compound 0.1 µM), 0.871; in experiment [2] (first compound 0.3162 µM), 0.846; in experiment [2] (first compound 1 µM), 0.884; in experiment [3] (first compound 0.01 µM), 0.47; in experiment [3] (first compound 0.03162 µM), 0.374. For the same cell line, the relative viability in experiment [3] (first compound 0.1 µM) is 0.38; in experiment [3] (first compound 0.3162 µM) it was 0.316; in experiment [3] (first compound 1 µM), 0.282; in experiment [4] (first compound 0.01 µM) it was 0.565; in experiment [4] (first compound 0.03162 µM), 0.566; in experiment [4] (first compound 0.1 µM), 0.535. Further, the relative viability turned out to be 0.568 in experiment [4] (first compound 0.3162 µM) and 0.571 in experiment [4] (first compound 1 µM).
